Experimental findings from US9359371B2, “Bicyclic substituted pyrimidine compounds” (Xuanzhu Pharma Co., Ltd., priority 2012, dated 2016) are described below.

The target of data set [1] is PDE-11 (Homo sapiens (Human), UniProt Q9HCR9). Put plainly: Caliper Mobility-Shift PDE-11 Assay. It is filed as biochemical. The settings on record: Table 4; maximum final concentration 10 μM. On the procedure:
Experiment 4: Measurement of Pharmacological Activity on PDE-11 Enzyme In Vitro
Method: enzyme assay, Caliper Mobility-Shift PDE-11 Assay
The test compound was accurately weighed, dissolved in DMSO, mixed thoroughly and formulated into 10 mM. The above stock solution was diluted to a concentration of 0.5 mM with DMSO, and then was gradiently diluted by a dilution factor of 3.162, resulting in 11 concentrations in total.
To a 96-well plate, 20 μL of 10 μM FL-cGMP as the substrate was added; then 1 μL solution of the compound in DMSO or DMSO solution without compound was added; and then 29 μL of 0.28 ng/μL PDE-11 enzyme buffer (100 mM Hepes pH 7.5, 5 mM MgCl2, 0.002% Brij-35) was added. The maximum final concentration of the compound was 10 μM. The plate was incubated at 30° C. for 1 h, and 20 μL of 70 μM EDTA was then added to stop the reaction. 26 μL of solution of each well was transferred to a 384-well plate. The conversion was read on a EZ reader II. The Inhibition rate was calculated by the formula below, and used to calculate IC50 by Prism 5.0 Inhibition rate=[Conversion (ZPE)−Conversion (sample)]×100/[Conversion (ZPE)−Conversion (HPE)]
Note: HPE: control without enzyme; ZPE: control without compound

For data set [2], the target named is PDE-5A enzyme (Homo sapiens (Human), UniProt O76074). The data set is described as follows: Caliper Mobility-Shift PDE-5A Assay. It is filed as biochemical. The conditions noted are these: Table 1; Avanafil value is the control. On the procedure:
Experiment 1: Measurement of Enzymatic Activity In Vitro
PDE-5A enzyme: humanized PDE-5 enzyme, SignalChem, Cat#93-31G-20.
Method: enzyme assay, Caliper Mobility-Shift PDE-5A Assay:
The test compound was accurately weighed, dissolved in DMSO, mixed thoroughly and formulated into 10 mM.
The maximum final concentration of the compound was 10 μM. The plate was incubated at 30° C. for 1 h, and 20 μL of 70 μM EDTA was then added to stop the reaction. 26 μL of solution of each well was transferred to a 384-well plate. The conversion was read on a EZ reader II. The inhibition rate was calculated by the formula below, and used to calculate IC50 by Prism 5.0 Inhibition rate=[Conversion (ZPE)−Conversion (sample)]×100/[Conversion (ZPE)−Conversion (HPE)]
Note: HPE: control without enzyme; ZPE: control without a test compound

The nature of data set [3]: Pharmacokinetics (PK) in SD rats. The settings on record: rat; for AUC(0-inf) / Cmax / Tmax / half-life / bioavailability: SD, plasma; for bioavailability: read-out: F % (absolute bioavailability). Type of data set: in vivo. On the procedure:
Experiment 9: Assay of Pharmacokinetics (PK) of the Compounds of the Present Invention in SD Rats
Compound 1-54 of the present invention were prepared by the methods described in Example 1 to Example 54 of the present invention.
The control drug Avanafil, of which the structure was stated above, was purchased commercially.
Collection of the rat's blood: The animal was fixed. The tail was warmed with a water bath 10 min before the collection time. About 200 μL of whole blood was collected from the tail vein. The collected blood was collected into anticoagulant tubes containing heparin sodium. The blood samples were centrifuged at 4° C. by 8000 rpm for 6 min to give the plasma samples, which should be prepared within 30 min after the collection of blood. The plasma samples were stored in a freezer of −80° C. until test.
The result output by Analyst 1.5.1 of AB Company was used as the concentration of the tested sample (plasma sample). The mean value, standard deviation, variable coefficient and the like were calculated by Microsoft Excel (except for the result directly output by Analyst 1.5.1). Parameters of PK were calculated by Pharsight Phoenix 6.2 software. Formula for calculating oral bioavailability: F %=AUCinf−po*Doseiv/AUCinf−iv*Dosepo.

Data set [4] has as its target PDE-5 enzyme (human blood platelets) (Homo sapiens (Human), UniProt O76074). Put plainly: PDE-5 enzyme assay, [3H]cGMP. The conditions noted are these: Table 2; human blood platelet enzyme; read-out: IC50 on PDE-5. It is filed as biochemical.
[5] abbreviates: po, intragastric administration, 2 mg/kg.
The mark [6] stands for this setting: po, intragastric administration, 1 mg/kg.

Read-outs that look alike come from different tables or passages of the source.

As usually defined, the IC50 is the concentration that inhibits the measured activity by half. As a reminder, the AUC(0-inf) is total exposure, with the tail of the curve extrapolated. By Cmax is commonly meant the peak of the concentration-time curve. Broadly, the Tmax is the time at which the peak concentration occurs. The half-life is the time in which the quantity being followed falls by half. A word on the bioavailability: it is the share of a dose that reaches the circulation, judged against a reference dose that is usually intravenous.

Chain of PDE-11 (Q9HCR9 whole entry): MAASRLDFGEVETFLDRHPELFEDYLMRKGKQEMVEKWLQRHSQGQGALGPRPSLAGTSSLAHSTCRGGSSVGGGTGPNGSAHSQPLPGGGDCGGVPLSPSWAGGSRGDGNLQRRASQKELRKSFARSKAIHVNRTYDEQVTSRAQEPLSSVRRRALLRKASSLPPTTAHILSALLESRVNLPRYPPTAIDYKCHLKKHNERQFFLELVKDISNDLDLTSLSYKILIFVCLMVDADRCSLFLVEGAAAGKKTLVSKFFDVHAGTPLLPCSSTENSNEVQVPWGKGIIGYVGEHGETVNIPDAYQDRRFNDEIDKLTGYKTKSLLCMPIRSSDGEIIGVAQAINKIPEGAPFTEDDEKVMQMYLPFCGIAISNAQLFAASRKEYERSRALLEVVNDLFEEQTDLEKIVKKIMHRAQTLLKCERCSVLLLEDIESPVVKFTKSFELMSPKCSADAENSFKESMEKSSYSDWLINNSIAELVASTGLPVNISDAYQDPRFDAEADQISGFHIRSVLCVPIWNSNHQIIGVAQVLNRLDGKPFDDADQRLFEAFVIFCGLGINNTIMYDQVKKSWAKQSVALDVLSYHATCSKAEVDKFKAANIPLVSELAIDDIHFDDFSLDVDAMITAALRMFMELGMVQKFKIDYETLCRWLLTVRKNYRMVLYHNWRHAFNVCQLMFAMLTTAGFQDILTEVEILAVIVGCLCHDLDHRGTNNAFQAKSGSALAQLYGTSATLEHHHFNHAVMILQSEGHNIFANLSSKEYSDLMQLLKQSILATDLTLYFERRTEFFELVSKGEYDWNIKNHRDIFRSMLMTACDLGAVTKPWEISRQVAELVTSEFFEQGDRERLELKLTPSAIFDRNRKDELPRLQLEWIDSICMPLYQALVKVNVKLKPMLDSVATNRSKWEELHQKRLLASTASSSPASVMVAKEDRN

Take `COc1ccc(CNc2nc(N3CCC4(CCN(C)C4)C3)ncc2C(=O)NCc2ncccn2)cc1Cl` (centres unmarked) [Compound 18, 4-((3-chloro-4-methoxybenzyl)amino)-2-(7-methyl-2,7-diazaspiro[4.4]nonan-2-yl)-N-(pyrimidin-2-ylmethyl)pyrimidine-5-formamide]: the half-inhibitory concentration (IC50) in data set [1] was over 10 µM.

Consider `COc1ccc(CNc2nc(N3CCC4(CC4)C3)ncc2C(=O)N[C@H]2CC[C@H](N)CC2)cc1Cl` [Compound 44, N-(trans-4-aminocyclohexyl)-4-(3-chloro-4-methoxybenzylamino)-2-(5-azaspiro[2.4]heptan-5-yl)pyrimidine-5-formamide], for which the IC50 in data set [1] was over 10 µM.

For `COc1ccc(CNc2nc(N3CC4CC4C3)ncc2C(=O)N[C@H]2CCCCNC2=O)cc1Cl` (some centres unmarked) [Compound 8, 2-(3-azabicyclo[3.1.0]hexan-3-yl)-4-((3-chloro-4-methoxybenzyl)amino)-N-((s)-caprolactam-3-yl)pyrimidine-5-formamide], the half-maximal inhibitory concentration (IC50) in data set [1] is over 10 µM; in data set [2], 0.0132 µM.

Turning to `COc1ccc(CNc2nc(N3CCC4(CC4)C3)ncc2C(=O)NCC2CCC(O)CC2)cc1Cl` (centres unmarked) [Compound 47, 4-((3-chloro-4-methoxybenzyl)amino)-N-(4-hydroxycyclohexyl)methyl-2-(5-azaspiro[2.4]heptan-5-yl)pyrimidine-5-formamide], the IC50 in data set [1] is over 10 µM.

In the case of `COc1ccc(CNc2nc(N3CC4CC4C3CO)ncc2C(=O)NCc2ccccc2)cc1Cl` (centres unmarked) [Compound 32, N-benzyl-4-((3-chloro-4-methoxybenzyl)amino)-2-(2-(hydroxymethyl)-3-azabicyclo[3.1.0]hexan-3-yl)pyrimidine-5-formamide], in data set [2], the IC50 was 0.00463 µM. In addition, in data set [3] (setting [5]), the AUC(0-inf) was found to be 24 ng·h/mL, the Cmax worked out at 6.5 ng/mL, the time of peak concentration (Tmax) amounted to 0.5 h and the half-life was 2.26 h. Besides, the bioavailability in data set [3] (setting [5]) worked out at 3.5%. In data set [3] (intravenous injection, 1 mg/kg), this compound showed an area under the curve AUC(0-inf) of 212 ng·h/mL, a half-life of 1.68 h, a Cl_obs of 80.2 mL/min/kg and a Vss_obs of 12.05 L/kg.

`COc1ccc(CNc2nc(N3CC4CC4C3)ncc2C(=O)NCC2CCNCC2)cc1Cl` (centres unmarked) [Compound 7, 2-(3-azabicyclo[3.1.0]hexan-3-yl)-4-((3-chloro-4-methoxybenzyl)amino)-N-(piperdin-4-ylmethyl)pyrimidine-5-formamide]: in data set [1], the IC50 was over 10 µM.

`COc1ccc(CNc2nc(N3CCC4(CC4)C3)ncc2C(=O)NCCN2CCNCC2)cc1Cl` [Compound 42, 4-((3-chloro-4-methoxybenzyl)amino)-N-(2-(piperazin-1-yl)ethyl)-2-(5-azaspiro[2.4]heptan-5-yl)pyrimidine-5-formamide]: the IC50 in data set [1] is over 10 µM.

For `COc1ccc(CNc2nc(N3CC4CC4C3)ncc2C(=O)NCc2ccc(F)cc2)cc1Cl` (centres unmarked) [Compound 5, 2-(3-azabicyclo[3.1.0]hexan-3-yl)-4-((3-chloro-4-methoxybenzyl)amino)-N-(4-fluorobenzyl)pyrimidine-5-formamide], the IC50 in data set [1] was over 10 µM; in data set [2] it was 0.0174 µM.

Turning to `COc1ccc(CNc2nc(N3CC4CC4C3)ncc2C(=O)NC2CCCCCC2)cc1Cl` (centres unmarked) [Compound 9, 2-(3-azabicyclo[3.1.0]hexan-3-yl)-4-((3-chloro-4-methoxybenzyl)amino)-N-cycloheptanylpyrimidine-5-formamide], the concentration for half-maximal inhibition (IC50) in data set [1] was over 10 µM; in data set [2], 0.0232 µM.

`COc1ccc(CNc2nc(N3CC4CC4C3)ncc2C(=O)NCc2cnc(C)cn2)cc1Cl` (centres unmarked) [Compound 4, 2-(3-azabicyclo[3.1.0]hexan-3-yl)-4-((3-chloro-4-methoxybenzyl)amino)-N-((5-methylpyrazine-2-yl)methyl)pyrimidine-5-formamide]: the IC50 in data set [1] is over 10 µM; in data set [2], 0.00463 µM.

Turning to `COc1ccc(CNc2nc(N3CCC4(CC4)C3)ncc2C(=O)NCc2ccccn2)cc1Cl` [Compound 40, 4-((3-chloro-4-methoxybenzyl)amino)-N-(pyridin-2-ylmethyl)-2-(5-azaspiro[2.4]heptan-5-yl)pyrimidine-5-formamide], the IC50 in data set [2] was 0.0119 µM. Further, in data set [3] (setting [5]), the AUC(0-inf) came out at 57 ng·h/mL, the highest concentration (Cmax) is 13.9 ng/mL, the time of peak concentration (Tmax) is 0.5 h and the half-life is 3.58 h. The bioavailability in data set [3] (setting [5]) came to 9.5%. In data set [3] (intravenous injection, 1 mg/kg), this compound had a total exposure AUC(0-inf) of 205 ng·h/mL, a half-life of 2.73 h, a Cl_obs of 81.3 mL/min/kg and a Vss_obs of 16.40 L/kg.

As to `COc1ccc(CNc2nc(N3CC4CC4C3)ncc2C(=O)NCc2ncccn2)cc1Cl` (centres unmarked) [Compound 1, 2-(3-azabicyclo[3.1.0]hexan-3-yl)-4-((3-chloro-4-methoxybenzyl)amino)-N-(pyrimidin-2-ylmethyl)pyrimidine-5-formamide], the IC50 is over 10 µM in data set [1], 0.00604 µM in data set [4] and 0.00604 µM in data set [2].

For the compound `COc1ccc(CNc2nc(N3CCC4(CC4)C3)ncc2C(=O)N[C@H]2CC[C@H](O)CC2)cc1Cl` (stereo in doubt) [Compound 43, 4-((3-chloro-4-methoxybenzyl)amino)-N-(trans-4-hydroxycyclohexyl)-2-(5-azaspiro[2.4]heptan-5-yl)pyrimidine-5-formamide], in data set [2], the IC50 was found to be 0.0154 µM. Also, in data set [3] (setting [5]), the half-life is 3.31 h and the bioavailability was 18%. Also, in data set [3] (intravenous injection, 1 mg/kg), the half-life was 1.3 h, the Cl_obs was found to be 53.8 mL/min/kg and the Vss_obs is 5.18 L/kg.

In the case of `COc1ccc(CNc2nc(N3CC4CC4C3)ncc2C(=O)NCCN2CCOCC2)cc1Cl` (centres unmarked) [Compound 6, 2-(3-azabicyclo[3.1.0]hexan-3-yl)-4-((3-chloro-4-methoxybenzyl)amino)-N-(2-morpholinylethyl)pyrimidine-5-formamide], the IC50 was over 10 µM in data set [1] and 0.00425 µM in data set [2].

Consider `COc1ccc(CNc2nc(N3CCC4(CCC4)CC3)ncc2C(=O)NCc2ncccn2)cc1Cl` [Compound 14, 4-((3-chloro-4-methoxybenzyl)amino)-N-(pyrimidin-2-ylmethyl)-2-(7-azaspiro[3.5]nonan-7-yl)pyrimidine-5-formamide], for which the IC50 in data set [1] is over 10 µM. In data set [3] (setting [6]), the AUC(0-inf) worked out at 36 ng·h/mL, the peak level (Cmax) was 5.2 ng/mL, the half-life was 2.85 h and the bioavailability worked out at 15%. In data set [3] (intravenous injection, 1 mg/kg), this compound showed an AUC(0-inf) of 237 ng·h/mL, a half-life of 1.47 h, a Cl_obs of 71 mL/min/kg and a Vss_obs of 8.73 L/kg.
